Paper PMC11601876, “Manganese-based type I collagen-targeting MRI probe for in vivo imaging of liver fibrosis” (Research Square, 2024)

What was measured:
[1] = rats; in words; cited from earlier work
Source text: Whole body PET-CT images recorded 1 and 7 days after [^52Mn]Mn-CBP20 injection are shown in Figure 6A and ex vivo ^52Mn biodistribution data are shown in Figure 6B and 6C and also tabulated in Supplementary Tables 1 and 2. The highest concentration of ^52Mn 1 day after injection is found in the kidneys, consistent with the expected renal elimination of the compound.

[2] = Kinetic inertness: Mn2+ dissociation upon Zn2+ challenge; format: physicochemical; conditions: 0.5 mM Mn2+ (0.167 mM Mn-CBP20), 10 mM Zn(OTf)2, pH 7.4 50 mM Tris/18 mM citrate, 27 °C, monitored by r2 change at 1.4T
Protocol: Figure 2. In vitro assays for collagen binding and kinetic inertness.
To assess kinetic inertness to Mn^2+ release, we evaluated Mn^2+ dissociation kinetics upon challenge of 0.167 mM Mn-CBP20 (0.5 mM Mn^2+) with 10 mM Zn(OTf)2 in the presence of pH 7.4 50 mM Tris/ 18 mM citrate buffer, Figure 2B. The presence of a weak chelator such as citrate is required to maintain homogenous reaction conditions during the course of the measurement, as treatment of Mn-CBP20 with even 1 mol equiv. […] Mn^2+ dissociation was monitored by observing change in r2. Under this set of assay conditions, the r2 value associated with dissociated Mn^2+ (16.3 mM^−1s^−1) is approximately half that of Mn^2+ bound within Mn-CBP20. As positive control, we monitored Mn^2+ dissociation from the kinetically inert complex Mn-CDTA (r2 = 5.9 mM^−1s^−1).

Compound	52Mn uptake in salivary glands relative to other tissues [1]	half-life (t1/2) of Mn2+ dissociation [2] [h]
Mn-DPDP	high and persistent ^52Mn uptake in the salivary glands relative to other tissues	
O=C([O-])CN(CC(=O)[O-])C1CCCCC1N(CC(=O)[O-])CC(=O)[O-].[Mn+2] (centres unmarked) [Mn-CDTA]		15.5
